According to paper PMC5290327, “SC83288 is a clinical development candidate for the treatment of severe malaria” (Nature Communications, 2017):
In brackets after ≈: the same amount, converted by molar mass.

Experiments:
[1] = Solubility in phosphate buffer; type: physicochemical
Procedure: (§1) SC81458 and SC83288 were soluble in water (890 and 940 μg ml^−1, respectively) and organic solvents. […] The compounds were stable in different physiological solutions, including artificial gastric juice, simulated intestinal fluid, phosphate-buffered saline and human plasma, when incubated for 6 h at 37 °C.

Ames test = conditions: 50 μM
P. falciparum strain K1 = assay: microbe, parasite or virus in culture; type: cell-based; conditions: Plasmodium falciparum
Na+ channel (site 2) = assay: Radioligand binding
5-HT5a (h) = target: T1, 5-HT5a (h) (Homo sapiens, UniProt P47898); assay: Radioligand binding
T1 construct: Cerep (contract screening)
T1 sequence (P47898 whole entry): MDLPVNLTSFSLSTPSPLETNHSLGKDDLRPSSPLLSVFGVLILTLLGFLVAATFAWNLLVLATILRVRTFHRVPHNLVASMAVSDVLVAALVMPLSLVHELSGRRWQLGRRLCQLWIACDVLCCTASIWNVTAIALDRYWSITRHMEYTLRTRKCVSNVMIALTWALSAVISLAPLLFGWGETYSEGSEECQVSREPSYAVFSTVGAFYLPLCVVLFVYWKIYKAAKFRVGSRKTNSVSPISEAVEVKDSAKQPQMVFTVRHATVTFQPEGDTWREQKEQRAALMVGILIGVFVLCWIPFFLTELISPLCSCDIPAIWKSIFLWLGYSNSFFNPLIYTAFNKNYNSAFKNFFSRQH

5-HT3 (h) = target: T2, 5-HT3 (h) (Homo sapiens, UniProt P46098); assay: Radioligand binding
T2 construct: Cerep (contract screening)
T2 sequence (P46098 24-478): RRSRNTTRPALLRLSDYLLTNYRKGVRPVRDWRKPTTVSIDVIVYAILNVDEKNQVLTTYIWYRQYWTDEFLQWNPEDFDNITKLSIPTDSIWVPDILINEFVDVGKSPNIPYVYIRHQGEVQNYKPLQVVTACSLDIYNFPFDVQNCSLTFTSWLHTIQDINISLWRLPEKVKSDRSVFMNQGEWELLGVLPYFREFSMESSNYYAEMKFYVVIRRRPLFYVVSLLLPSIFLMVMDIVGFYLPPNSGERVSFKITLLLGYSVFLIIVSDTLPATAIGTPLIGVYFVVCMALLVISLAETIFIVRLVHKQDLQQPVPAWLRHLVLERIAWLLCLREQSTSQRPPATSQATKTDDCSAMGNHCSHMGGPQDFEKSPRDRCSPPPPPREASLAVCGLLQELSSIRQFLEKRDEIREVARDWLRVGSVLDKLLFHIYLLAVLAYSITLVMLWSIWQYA

[2] = system: late stage (IV and V) gametocytes, NF54^Pfs16; assay: Gametocytocidal activity, luciferase assay; type: cell-based; conditions: Plasmodium falciparum, 72 h
Procedure: (§2) Activity against early- and late-stage gametocytes was determined in miniaturized 384-wells plate assays as previously described. Briefly, gametocytes from a recombinant line NF54^Pfs16, expressing a green fluorescent protein–luciferase reporter gene under the gametocyte-specific Pfs16 promoter were induced and purified as previously described; gametocytes were then treated either on day 1 (stage I gametocytes) or day 8 of gametocytogenesis (stage IV gametocytes) with serially diluted SC81458 or SC83288 to achieve a final top concentration of 40 μM (0.4% dimethylsulphoxide(DMSO)). After 72 h of incubation, gametocyte inhibition was assessed by luminometry, after addition of Steadylite plus luciferase detection kit (PerkinElmer) to the plate wells[58][59].

[3] = system: early stage (I–III) gametocytes, NF54^Pfs16; assay: Gametocytocidal activity, luciferase assay; type: cell-based; conditions: Plasmodium falciparum, 72 h
Procedure: as §2

D2S (h) = target: T3, D2S (h) (Homo sapiens, UniProt P14416); assay: Radioligand binding
T3 construct: Cerep
T3 sequence (P14416 1-414 isoform P14416-2): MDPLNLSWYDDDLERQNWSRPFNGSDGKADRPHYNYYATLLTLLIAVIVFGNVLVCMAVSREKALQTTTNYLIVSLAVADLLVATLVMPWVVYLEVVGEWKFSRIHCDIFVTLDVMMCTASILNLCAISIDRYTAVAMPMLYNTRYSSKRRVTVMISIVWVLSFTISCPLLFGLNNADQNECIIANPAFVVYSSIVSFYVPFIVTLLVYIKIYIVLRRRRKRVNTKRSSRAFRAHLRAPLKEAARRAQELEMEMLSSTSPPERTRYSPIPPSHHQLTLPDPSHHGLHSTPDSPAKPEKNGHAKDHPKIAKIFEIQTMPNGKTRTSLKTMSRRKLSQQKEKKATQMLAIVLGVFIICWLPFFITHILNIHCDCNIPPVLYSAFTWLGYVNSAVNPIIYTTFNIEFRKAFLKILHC

[4] = system: synchronized Dd2 rings, trophozoites, schizonts; assay: Stage-specific activity, 6 h exposure, [3H] hypoxanthine; type: cell-based; conditions: Plasmodium falciparum, DD2, 6 h
H2 (h) = target: T4, H2 (h) (Homo sapiens, UniProt P25021); assay: Radioligand binding
T4 construct: Cerep
T4 sequence (P25021 whole entry): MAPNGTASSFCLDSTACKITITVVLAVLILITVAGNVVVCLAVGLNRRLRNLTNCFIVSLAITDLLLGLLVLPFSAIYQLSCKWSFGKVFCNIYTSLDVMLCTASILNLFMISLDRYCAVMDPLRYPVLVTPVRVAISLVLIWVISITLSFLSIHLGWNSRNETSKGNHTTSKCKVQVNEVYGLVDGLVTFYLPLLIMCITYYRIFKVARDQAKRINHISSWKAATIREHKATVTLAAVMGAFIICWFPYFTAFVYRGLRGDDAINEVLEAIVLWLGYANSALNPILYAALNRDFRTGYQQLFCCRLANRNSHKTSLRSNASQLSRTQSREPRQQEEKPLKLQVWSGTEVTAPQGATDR

BZD (central) = assay: Radioligand binding
VPAC1 (VIP1) (h) = target: T5, VPAC1 (VIP1) (h) (Homo sapiens, UniProt P32241); assay: Radioligand binding
T5 construct: Cerep (contract screening)
T5 sequence (P32241 31-457): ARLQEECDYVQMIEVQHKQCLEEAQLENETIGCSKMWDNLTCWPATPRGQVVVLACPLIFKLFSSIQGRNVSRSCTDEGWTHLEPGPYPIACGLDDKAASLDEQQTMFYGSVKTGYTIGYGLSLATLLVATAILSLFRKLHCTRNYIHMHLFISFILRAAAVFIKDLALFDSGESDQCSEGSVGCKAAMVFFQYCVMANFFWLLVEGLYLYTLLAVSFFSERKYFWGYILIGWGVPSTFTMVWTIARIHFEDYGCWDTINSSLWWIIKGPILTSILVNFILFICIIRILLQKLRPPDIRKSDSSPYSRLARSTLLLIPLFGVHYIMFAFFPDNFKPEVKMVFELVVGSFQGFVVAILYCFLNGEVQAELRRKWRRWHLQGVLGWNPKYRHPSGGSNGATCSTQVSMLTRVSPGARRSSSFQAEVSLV

5-HT2A (h) = target: T6, 5-HT2A (h) (Homo sapiens, UniProt P28223); assay: Radioligand binding
T6 construct: Cerep (contract screening)
T6 sequence (P28223 whole entry): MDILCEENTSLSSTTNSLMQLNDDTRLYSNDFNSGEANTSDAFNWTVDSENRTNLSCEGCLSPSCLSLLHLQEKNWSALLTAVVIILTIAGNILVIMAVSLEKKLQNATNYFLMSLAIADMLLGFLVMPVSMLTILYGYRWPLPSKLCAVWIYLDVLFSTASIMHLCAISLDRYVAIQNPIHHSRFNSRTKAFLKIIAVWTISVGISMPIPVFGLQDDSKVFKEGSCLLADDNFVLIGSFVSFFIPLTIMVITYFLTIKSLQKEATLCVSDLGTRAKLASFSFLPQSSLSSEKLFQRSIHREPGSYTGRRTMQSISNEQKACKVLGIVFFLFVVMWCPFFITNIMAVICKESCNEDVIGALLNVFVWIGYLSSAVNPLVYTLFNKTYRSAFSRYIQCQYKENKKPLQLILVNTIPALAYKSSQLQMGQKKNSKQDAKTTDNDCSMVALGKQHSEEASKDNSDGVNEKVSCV

CYP2A6 = CYP2A6 (Homo sapiens, UniProt P11509); assay: CYP inhibition, human liver microsomes; conditions: CYP2A6, coumarin to 7-OH-coumarin, 10 µM
Sequence of CYP2A6 (P11509 whole entry): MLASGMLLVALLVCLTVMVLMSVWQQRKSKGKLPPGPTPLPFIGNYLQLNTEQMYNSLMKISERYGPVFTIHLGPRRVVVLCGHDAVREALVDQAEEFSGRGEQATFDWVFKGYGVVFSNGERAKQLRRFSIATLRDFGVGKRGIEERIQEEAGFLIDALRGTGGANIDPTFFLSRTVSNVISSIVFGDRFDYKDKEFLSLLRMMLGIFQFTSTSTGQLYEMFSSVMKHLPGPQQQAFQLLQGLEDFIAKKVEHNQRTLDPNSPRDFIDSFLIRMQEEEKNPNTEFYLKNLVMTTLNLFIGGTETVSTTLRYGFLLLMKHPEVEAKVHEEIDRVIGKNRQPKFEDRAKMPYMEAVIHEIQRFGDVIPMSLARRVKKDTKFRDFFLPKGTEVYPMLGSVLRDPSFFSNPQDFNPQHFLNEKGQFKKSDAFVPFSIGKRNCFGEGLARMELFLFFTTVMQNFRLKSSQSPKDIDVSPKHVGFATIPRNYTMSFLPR

GABA (non-selective) = assay: Radioligand binding
human T-cells = assay: Cytotoxicity; conditions: 50 μM
CCR1 (h) = target: T7, CCR1 (h) (Homo sapiens, UniProt P32246); assay: Radioligand binding
T7 construct: Cerep
T7 sequence (P32246 1-355): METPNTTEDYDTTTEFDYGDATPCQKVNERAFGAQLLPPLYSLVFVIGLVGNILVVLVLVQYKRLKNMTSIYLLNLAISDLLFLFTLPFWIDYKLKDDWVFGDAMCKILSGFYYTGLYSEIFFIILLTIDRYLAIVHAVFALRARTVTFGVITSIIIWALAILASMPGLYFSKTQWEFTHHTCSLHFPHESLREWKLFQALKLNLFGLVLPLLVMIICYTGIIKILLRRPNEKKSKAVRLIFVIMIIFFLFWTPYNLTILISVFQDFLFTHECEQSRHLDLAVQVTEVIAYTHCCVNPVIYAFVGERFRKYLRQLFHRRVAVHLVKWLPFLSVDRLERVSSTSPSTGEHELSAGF

5-HT1B = target: T8, 5-HT1B (Rattus norvegicus, UniProt P28564); assay: Radioligand binding
T8 construct: Cerep (contract screening)
T8 sequence (P28564 whole entry): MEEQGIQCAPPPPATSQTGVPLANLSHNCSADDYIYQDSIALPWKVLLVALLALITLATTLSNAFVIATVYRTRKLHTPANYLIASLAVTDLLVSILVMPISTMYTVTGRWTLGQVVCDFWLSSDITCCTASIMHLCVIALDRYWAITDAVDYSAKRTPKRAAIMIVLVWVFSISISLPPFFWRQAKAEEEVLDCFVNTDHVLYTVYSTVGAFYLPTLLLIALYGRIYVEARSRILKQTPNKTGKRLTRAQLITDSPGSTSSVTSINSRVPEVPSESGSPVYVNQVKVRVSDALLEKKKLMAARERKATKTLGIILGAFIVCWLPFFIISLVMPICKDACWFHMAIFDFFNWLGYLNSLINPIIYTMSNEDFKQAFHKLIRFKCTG

M3 (h) = target: T9, M3 (h) (Homo sapiens, UniProt P20309); assay: Radioligand binding
T9 construct: Cerep
T9 sequence (P20309 whole entry): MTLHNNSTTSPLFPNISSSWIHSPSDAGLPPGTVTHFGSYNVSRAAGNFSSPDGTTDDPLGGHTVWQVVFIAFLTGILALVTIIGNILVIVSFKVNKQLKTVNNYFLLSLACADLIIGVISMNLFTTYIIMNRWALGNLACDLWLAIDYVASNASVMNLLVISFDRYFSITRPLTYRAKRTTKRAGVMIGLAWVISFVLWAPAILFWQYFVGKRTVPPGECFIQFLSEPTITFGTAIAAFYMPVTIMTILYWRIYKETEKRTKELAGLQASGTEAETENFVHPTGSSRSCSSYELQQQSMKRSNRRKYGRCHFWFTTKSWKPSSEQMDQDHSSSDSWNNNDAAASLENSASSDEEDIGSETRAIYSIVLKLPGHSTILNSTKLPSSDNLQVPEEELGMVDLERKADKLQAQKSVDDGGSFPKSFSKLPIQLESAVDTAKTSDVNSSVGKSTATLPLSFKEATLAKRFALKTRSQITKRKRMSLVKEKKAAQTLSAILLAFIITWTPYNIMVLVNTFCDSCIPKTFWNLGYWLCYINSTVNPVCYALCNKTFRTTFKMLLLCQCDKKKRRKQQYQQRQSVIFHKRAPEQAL

P. falciparum strain 3D7 = assay: Growth inhibition assay; type: cell-based; conditions: Plasmodium falciparum
[5] = system: P. falciparum strains 3D7 and W2; assay: Efficacy in the Pf/NSG mouse model; type: in vivo, Plasmodium falciparum; conditions: for reduction of parasite burden within the first 24 h: 10.0 mg kg^−1 per day i.p.; for recrudescence of the infection: 3 weeks survey, exception 3D7-infected mice treated with 2.5 mg kg^−1 of SC81458; for In vivo PCT99.9%: i.p. once per day 4 days
CYP2E1 = CYP2E1 (Homo sapiens, UniProt P05181); assay: CYP inhibition, human liver microsomes; conditions: for Remaining enzyme activity: CYP2E1, chlorzoxazone to 6-OH-chlorzoxazone, 10 µM
Sequence of CYP2E1 (P05181 whole entry): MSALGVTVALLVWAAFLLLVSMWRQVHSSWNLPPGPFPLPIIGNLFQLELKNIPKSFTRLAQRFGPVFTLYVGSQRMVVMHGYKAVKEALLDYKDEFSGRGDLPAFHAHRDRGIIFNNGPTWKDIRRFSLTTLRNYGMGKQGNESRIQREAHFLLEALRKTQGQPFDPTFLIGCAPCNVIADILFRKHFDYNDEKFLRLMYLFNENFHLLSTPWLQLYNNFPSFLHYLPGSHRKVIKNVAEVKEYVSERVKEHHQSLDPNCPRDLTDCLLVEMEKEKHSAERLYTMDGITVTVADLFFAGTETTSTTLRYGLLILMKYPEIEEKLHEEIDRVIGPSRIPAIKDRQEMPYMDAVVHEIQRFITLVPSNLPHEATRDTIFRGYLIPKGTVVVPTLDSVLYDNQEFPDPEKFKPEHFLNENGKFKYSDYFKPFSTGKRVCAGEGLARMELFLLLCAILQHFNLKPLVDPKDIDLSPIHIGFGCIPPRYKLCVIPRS

[6] = In vitro metabolism in liver microsomes; conditions: dog liver microsomes, 10 μM
[7] = Stability in physiological solutions; type: physicochemical; conditions: artificial gastric juice, simulated intestinal fluid, PBS, human plasma; 6 h at 37 °C
Procedure: as §1

ETA (h) = target: T10, ETA (h) (Homo sapiens, UniProt P25101); assay: Radioligand binding
T10 construct: Cerep
T10 sequence (P25101 21-427): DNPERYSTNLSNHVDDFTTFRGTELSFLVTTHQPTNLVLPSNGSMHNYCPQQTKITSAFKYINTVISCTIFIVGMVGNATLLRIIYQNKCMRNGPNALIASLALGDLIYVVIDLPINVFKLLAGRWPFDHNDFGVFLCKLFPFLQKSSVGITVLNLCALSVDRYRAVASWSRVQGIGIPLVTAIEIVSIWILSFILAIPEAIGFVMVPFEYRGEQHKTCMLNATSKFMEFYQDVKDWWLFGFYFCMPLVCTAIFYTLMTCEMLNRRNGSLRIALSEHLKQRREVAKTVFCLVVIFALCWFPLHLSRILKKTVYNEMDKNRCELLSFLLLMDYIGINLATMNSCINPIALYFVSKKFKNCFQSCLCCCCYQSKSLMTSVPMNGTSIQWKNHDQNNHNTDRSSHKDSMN

[8] = Stability in cultured blood cell cultures; type: in vitro ADME; conditions: 2 μM, at least 6 h, 37 °C
Procedure: An enriched young trophozoite-stage culture of P. falciparum Dd2 was obtain by magnetic purification and allowed to recover for 1 h at 37 °C in RPMI 1640 medium (Life Technologies) enriched with 1% hypoxanthine (C.C.Pro GmbH) and […] (Life Technologies). The experiment was performed in a total volume of 300 μl, at a haematocrit of 50%, in presence or absence of 2 μM of SC81458 or SC83288, for 6 h at 37 °C under shaking conditions. Each sample was subsequently treated with 1.2 ml of ice-cold acetonitrile, incubated on ice for 10 min and centrifuged for 15 min at 6,000g at 4 °C. Supernatants were stored at −80 °C until mass spectrometric measurement.

SMILES | solubility ([1]; pH 4, aqueous buffer) [µM] | solubility ([1]; pH 9, aqueous buffer) [µM] | genotoxicity in a reverse Ames test (Ames test) | IC50 (P. falciparum strain K1) [µM] | Inhibition of control specific binding (Na+ channel (site 2)) [%] | Inhibition of control specific binding (5-HT5a (h)) [%] | Inhibition of control specific binding (5-HT3 (h)) [%] | IC50 [2] [µM] | IC50 [3] [µM] | Inhibition of control specific binding (D2S (h)) [%] | IC50 ([4]; ring stages) [µM] | IC50 ([4]; schizonts) [µM] | IC50 ([4]; trophozoites) [µM] | Inhibition of control specific binding (H2 (h)) [%] | Inhibition of control specific binding (BZD (central)) [%] | Inhibition of control specific binding (VPAC1 (VIP1) (h)) [%] | Inhibition of control specific binding (5-HT2A (h)) [%] | Remaining enzyme activity (CYP2A6) [%] | Inhibition of control specific binding (GABA (non-selective)) [%] | in vitro propagation / cytotoxicity (human T-cells) | further results
COC(=O)N1CCN(C(=N)c2cccc(NC(=O)Nc3ccc(S(=O)(=O)NCc4ccc(S(N)(=O)=O)cc4)cc3)c2)CC1 [SC83288, methyl 4-(imino(3-(3-(4-(N-(4-sulfamoylbenzyl)sulfamoyl)phenyl)ureido)phenyl)methyl) piperazine-1-carboxylate] | 2600 (≈ 1640 µg/mL) | 800 (≈ 504 µg/mL) | no signs of genotoxicity | 0.005 ± 0.001 | 19 | 16 | 17 | > 30 | 0.199 ± 0.03 | 1 | 3 ± 1 | 0.11 ± 0.03 | 0.04 ± 0.004 | 0 | 70 | -5 | 30 | 101 | 6 | did not affect | Inhibition of control specific binding (CCR1 (h)): -2%; Inhibition of control specific binding (5-HT1B): 6%; Inhibition of control specific binding (M3 (h)): 55%; IC50 (P. falciparum strain 3D7): 0.008 ± 0.002 µM; reduction of parasite burden within the first 24 h [5]: ~93%; recrudescence of the infection [5]: no recrudescence; free-minimal parasiticidal concentration (MPC) ([5]; NSG mice): 200 nM; ED50 (free plasma concentration) ([5]; NSG mice, 2 days after commencement of treatment, sigmoidal model fit): 0.045 µM; ED90 (free plasma concentration) ([5]; NSG mice, sigmoidal model fit): 0.08 µM; reduction of parasitemia over a replicative cycle of 48 h ([5]; humanized NSG mouse): 99.9%; In vivo PCT99.9% ([5]; humanized NSG mouse): 48 h; In vivo logPRR ([5]; humanized NSG mouse, no distinction between strains): 3.0; Remaining enzyme activity (CYP2E1): 68%; inhibition at 20 min, 10 µM (CYP2E1; human, pooled liver microsomes, pH 7.4, probe chlorzoxazone (10 μM)): 30%; remaining after 60 min of incubation [6]: 83%; stability in physiological solutions [7]: stable; Inhibition of control specific binding (ETA (h)): 0%; stability in human red blood cells and P. falciparum cultures [8]: stable
CCCCN1CCN(C(=N)c2cccc(NC(=O)Nc3ccc(S(=O)(=O)NCc4ccc(S(N)(=O)=O)cc4)cc3)c2)CC1 [SC81458, 4-(3-(3-((4-butylpiperazin-1-yl)(imino)methyl)phenyl)ureido)-N-(4-sulfamoylbenzyl) benzenesulfonamide] | 1800 (≈ 1130 µg/mL) | 400 (≈ 251 µg/mL) | no signs of genotoxicity | 0.009 ± 0.003 | 45 | 1 | 1 | 1.8 ± 0.2 | 0.076 ± 0.006 | 15 | 5 ± 1 | 0.07 ± 0.01 | 0.037 ± 0.003 | 26 | 16 | -4 | 17 | 98 | 14 | did not affect | Inhibition of control specific binding (CCR1 (h)): -13%; Inhibition of control specific binding (5-HT1B): -3%; Inhibition of control specific binding (M3 (h)): 48%; IC50 (P. falciparum strain 3D7): 0.013 ± 0.001 µM; reduction of parasite burden within the first 24 h [5]: ~97%; recrudescence of the infection [5]: no recrudescence; In vivo PCT99.9% ([5]; humanized NSG mouse): <48 h; Remaining enzyme activity (CYP2E1): 106%; remaining after 60 min of incubation [6]: 37%; stability in physiological solutions [7]: stable; Inhibition of control specific binding (ETA (h)): 1%; stability in human red blood cells and P. falciparum cultures [8]: stable
